Entries after “also recorded” stand apart in the source; their conditions may differ. Where two headings read alike, the source gives them in different places.
Experiments:
DNA [1] = assay: Dark complex formation (intercalation) with DNA in the ground state, binding parameters; set-up: K (association constants) of the complexes with DNA: unit not given here
Source text: Dark complex formation: It is known from F. Dall'Acqua, et al. Chem.-Biol. Interactions 21,103 (1978) that the intercalated complex formed by furocoumarins with DNA strongly affects the successive photoaddition increasing the rate of photobinding. […] These parameters have been determined according to the method of McChee and Von Hippel, J.Mol.Biol, 86, 469 (1974).
(a) Determined according to Mc Ghee and Von Hippel, J. Mol. Biol.,

DNA [2] = assay: Photobinding to DNA, rate constants of the photoreactions; format: biochemical
Source text: (b) Determined according to F. Dall'Acqua, S. Marciani, F. Zambon and G.
Rodighiero, Photochem. Photobiol., 29,489(1979).
Photobinding capacity to DNA: The introduction of one or two methyl groups in the molecule of angelicin leads to a strong increase of the photobinding to DNA; see Table II. […] Photobiol., 29, 489 (1979).

DNA [3] = assay: Capacity to form inter-strand cross-linkages in DNA; format: biochemical; conditions: (psr = 100)
Method: All these compounds were not suitable to photoinduce in DNA inter-strand cross-linkages. […] These tests were carried out according to the method of F. Bordin et al., Photochem. Photobiol., 29,1063 (1979).

epidermal DNA synthesis [4] = assay: Inhibition of epidermal DNA synthesis in the mouse in vivo after topical application and UV-A irradiation; conditions: light or radiation study, 0.01% methanol solutions, UV-A 9 J/cm^2, read-out: Percent inhibition ± standard error of epidermal DNA synthesis
Method: DNA samples were dissolved in water and their specific radioactivity determined.
Each drug substance was studied using at least six mice.

epidermal DNA synthesis [5] = assay: Inhibition of the synthesis of epidermal DNA of the mouse in vivo after oral administration and UV-A irradiation; conditions: oral 0.25 g/Kg, UV-A 9 J/cm^2 after two hours
Source text: Considering that the topical skin tests carried out on mice to evaluate the effectiveness of these substances has yielded data which correlate well with the clinical data, such a test conveniently modified has been adopted to evaluate the effectiveness of the alkylangelicins after oral administration followed by UV-A irradiation.
In this connection experiments have been conducted using mice 20±2 g in weight, that were starved for three hours before oral administration of the alkylangelicins. Groups of 5 mice were fed a suspension of 0.5% methylcellulose in water containing the alkylangelicins of the invention at a dosage of 0.25 g/Kg. The animals were kept in the dark for two hours, that is for the time necessary for absorption, systemic distribution and localization of the drug at the level of the skin. The animals were then irradiated with UV-A light, 9 J/cm^2. Later the animals were sacrificed and the inhibition of the epidermal DNA synthesis was tested; the results obtained are reported in Table VI. The skin on the back, protected from light by a dark paper, was assumed as a control. As a reference 8-MOP, used under the same experimental conditions, was also tested. The significant activity of the alkylangelicins according to the present invention, higher than that of 8-MOP, in inhibiting the epidermal DNA synthesis in mice upon oral administration allows one to consider these compounds as also being effective for oral administration to humans for photochemotherapy of psoriasis and of other skin diseases that are characterized by cellular hyperproliferation.

psoriasis = assay: Topical photochemotherapy of psoriasis in patients; format: in vivo, human; conditions: topical 0.1% w/v + UV-A
Source text: Clinical data: The effectiveness of certain representative alkylangelicins according to the present invention, specifically 5-methylangelicin, 4,5'-dimethylangelicin, 4'-hydroxymethyl-4,5'-dimethylangelicin, 4'-hydroxymethyl-4,5'-dimethylangelicin and 4,5-dimethylangelicin, has been tested by measuring their capacity to resolve psoriasis in various patients. For a direct comparison the efficacy of the parent unsubstituted angelicin and that of three very effective linear furocoumarins, that is 8-methoxypsoralen (8-MOP), 5-methoxypsoralen (5-MOP), and 4,5',8-trimethylpsoralen (TMP) were also tested.
In each treatment four areas of the affected skin were used;
(a) In the first area an alcohol lotion, containing 10% glycerine, of the tested compound (0.1% w/v) was applied until a concentration of […] was reached then left to evaporate by the heat of the body. After half an hour the area was irradiated with high intensity UV-A emitting low pressure mercury fluorescent lamps with a wavelength of 320-400 nm. The irradiation doses were selected in the range of 4.5-13 J/cm^2 for each application as a function of the sensitivity of the skin of the patients; when the skin sensitivity was higher, the light doses were lower and vice versa.
(b) A second area was treated with an alcohol solution of the drug as in (a) but it was covered and maintained in the dark.
(c) A third area, where the drug was not applied, was irradiated as in (a) but in general with higher UV-A doses.
(d) A fourth area was not treated at all, neither with the drug, not with UV-A.
The treatment with the alkylangenlicins referred to above was repeated 5 time a week for two or more weeks; the total number of treatments was between 8 and 20 per subject. In some cases, as for instance with 5-methylangelicin, a good clearing of psoriasis was observed after 8 treatments.
In order to avoid induction of photosensitization processes such as redness and erythema in the reference tests made with the linear furocoumarins 8-MOP, 5-MOP, TMP, lower light doses were used than in the case of alkylangelicins, the treatments were repeated at a frequency of no more than three times a week.

melamin pigmentation = conditions: Table I; cited from earlier work
DNA [6] = conditions: cited from earlier work; for Photobinding capacity to DNA: known furocoumarins
DNA synthesis = conditions: Table I; cited from earlier work
E. coli wild type strain = conditions: E. coli wild type strains; cited from earlier work
E. coli WP2 trp^- uvrA^- = conditions: cited from earlier work
[7] = known furocoumarins, Table I; cited from earlier work
[8] = Table I; cited from earlier work
[9] = test system: normal human and guinea pig skin; conditions: in vivo; cited from earlier work
skin = assay: Relative skin phototoxicity; conditions: (psr = 100)

O=c1ccc2ccc3occc3c2o1 [angelicin, reference compound]
K (association constants) of the complexes with DNA (DNA [1]; in vitro, ground state, McGhee and Von Hippel method): 560
1/n (frequency of binding sites) (DNA [1]; in vitro, ground state, molecules bound per nucleotide): 0.063
1/n (frequency of binding sites), relative (DNA [1]; relative (ang = 100)): 100
K (association constants), relative (DNA [1]; relative (ang = 100)): 100
Rate constants of the photoreactions with DNA (DNA [2]; in vitro, UV-A irradiated): 1.1 K × 10^-2 × min^-1
Rate constants of the photoreactions with DNA, relative (DNA [2]; relative (ang = 100)): 100
capacity to form interstrand cross-linkages (DNA [3]): 0
inhibition in vivo at 0.01 % (epidermal DNA synthesis [4]): 17.5 ± 2.5%
Percent inhibition ± standard error of epidermal DNA synthesis (epidermal DNA synthesis [5]): 28 ± 2%
No. of patients with Excellent result (psoriasis; Excellent = 90% clearance): 0 patients
No. of patients with Fair result (psoriasis; Fair = 50-70%): 0 patients
No. of patients with Good result (psoriasis; Good = 70-90%): 0 patients
No. of patients with Poor result (psoriasis; Poor 40%): 8 patients
Stimulation of melamin pigmentation (melamin pigmentation): absent
DNA intercalation property (DNA [6]; Table I): evident
Interstrand cross-linking induction in DNA (DNA [6]; Table I): absent
Monoadduct forming property (DNA [6]; Table I): weak
Photobinding capacity to DNA (DNA [6]): low capacity of photobinding to DNA; also recorded: low photobinding capacity towards DNA
Photobinding capacity to DNA (DNA [6]; listed as Angelicin): weak
DNA synthesis inhibiting property (DNA synthesis): weak
mutagenic activity / mutation frequency, wild type (E. coli wild type strain): not detectable
mutagenic activity, strains deficient in known repair functions (E. coli WP2 trp^- uvrA^-): Only very low mutagenic activity
Photosensitizing activity [7]: absent
Mutagenicity [8]: weak
erythema or hyperpigmentation on the skin [9]: does not provoke either erythema or hyperpigmentation on the skin
Relative skin phototoxicity (skin): 0

Source: US4312883A, “Furocoumarin for the photochemotherapy of psoriasis and related skin diseases” (Consiglio Nazionale delle Ricerche, priority 1979, dated 1982)
